The subject of one assay is MEF. The assay is described as follows: Filopodia formation in MEF (F-actin staining, cells with at least 5 filopodia scored positive). To be noted: pretreated for 10 hours (TNFα 100 ng.ml^−1, adriamycin 5 μg.ml^−1, etoposide 25 μg.ml^−1), followed by 12 minutes bradykinin; bradykinin alone 62%. Type of assay: cell-based, mouse. The text has this:
(§1) Human wild type p53 cDNA or its mutated forms, H175 and H273 were cloned into the BamH1 site of pCDNA3 vector (Invitrogen), then transferred in pEGFPC1 (Clontech) to give GFP-tagged proteins. Constructs expressing MYC epitope-tagged mutant Rac1, Cdc42 and RhoA proteins and their various mutants were kindly provided by P. Chavrier (Dutartre et al., 1996). The GFP fusion proteins were cloned in the pEGFP-C1 vector (Gauthier-Rouviere et al., 1998), (Ory et al., 2000), (Roux et al., 1997). The pcDNA3myc-NWASP containing the Cdc42-interacting domain of WASP was previously described in (Philips et al., 2000). The pGL2B-mdm2 plasmid in which the reporter gene luciferase is controlled by the p53-responsive element of mdm2 (Barak et al., 1994) was a kind gift of E. Yonish-Rouach. pTKRL plasmid was from Promega. TNFα, adriamycin and etoposide (Sigma) were used in all experiments at the concentration of 100 ng.ml^−1, 5 μg.ml^−1 and 25 μg.ml^−1, respectively.
Cdc42-dependent filopodia formation was induced by bradykinin (Kozma et al., 1995; Nobes and Hall, 1995a). p53 was activated either by Tumor Necrosis Factor-a (TNFa), or using two cytotoxic drugs adriamycin and etoposide, previously shown to induce accumulation of p53 in MEF (Klefstrom et al., 1997; Lowe et al., 1993).

Assay [1] has as its system p53-responsive element of mdm2. The assay is described as follows: p53 transactivation assay (dual-luciferase, mdm2 promoter reporter) in MEF. The assay is classed as cell-based, mouse. Conditions: MEF treated for 10 hours, TNFα 100 ng.ml^−1, adriamycin 5 μg.ml^−1, etoposide 25 μg.ml^−1; for activation of the p53-responsive element (luciferase activity): luciferase assayed 24 hours after transfection. The protocol:
A: MEF were transfected with the firefly luciferase gene under the control of the mdm2 promoter and treated for 10 hours either with TNFa adriamycin, or etoposide. The luciferase activity was assayed 24 hours after transfection. The p53 responsive element construct was transfected in combination with either p53wt, as a positive control, or with the dominant negative mutants p53-H273 or p53-H175. The luciferase activity was assayed 24 hours later. The results are shown as mean+/−S.D. of four measurements.
as §1
p53 transactivation was measured using the dual-luciferase assay system from Promega. Cells (5×10^4) were seeded onto twelve-well plates and transfected 18 hours later in OptiMEM containing 0.440 μg of DNA (0.2 μg of appropriate GTPase plasmids, 0.2 μg of pGL2B-mdm2-luciferase plasmid and 0.04 μg of pTKRL plasmid) using 0.33 μl of Lipofectamine (Gibco-BRL) for 4 h. Cells were then left for 24 h in DMEM supplemented with 10% FCS, harvested in […] of Passive Lysis Buffer (PLB, Promega), and luciferase activity was measured following the Dual-luciferase™ Reporter Assay Protocol as recommended by Promega, using a luminometer fitted with two injectors (Berthold).
Cdc42-dependent filopodia formation was induced by bradykinin (Kozma et al., 1995; Nobes and Hall, 1995a). p53 was activated either by Tumor Necrosis Factor-a (TNFa), or using two cytotoxic drugs adriamycin and etoposide, previously shown to induce accumulation of p53 in MEF (Klefstrom et al., 1997; Lowe et al., 1993). […] Finally, we monitored the effect of p53 upregulation by TNFα, etoposide and adriamycin on Cdc42-dependent filopodia formation by bradykinin.

As for Tumor Necrosis Factor-a [TNFα], in the assay on MEF, the “MEF having filopodia (bradykinin-mediated filopodia formation after pretreatment)” value (shortened to “MEF having filopodia”) is 28%. Further, in assay [1], the “activation of the p53-responsive element as % of the value obtained with the positive control (p53 wt)” value was 36% and the “activation of the p53-responsive element (luciferase activity)” value (“activation … (luciferase activity)” below) is “twenty eight-fold”.
Take `COc1cc([C@@H]2c3cc4c(cc3[C@@H](O[C@@H]3O[C@@H]5CO[C@@H](C)O[C@H]5[C@H](O)[C@H]3O)[C@H]3COC(=O)[C@H]23)OCO4)cc(OC)c1O` [etoposide]: the “MEF having filopodia” value in the assay with MEF was 20%. Besides, in assay [1], the “activation of the p53-responsive element as % of the value obtained with the positive control (p53 wt)” value amounted to 30% and the “activation … (luciferase activity)” value is listed as “twenty four-fold”.
`COc1cccc2c1C(=O)c1c(O)c3c(c(O)c1C2=O)C[C@@](O)(C(=O)CO)C[C@@H]3O[C@H]1C[C@H](N)[C@H](O)[C@H](C)O1` [adriamycin]: the “MEF having filopodia” value with MEF is listed as 16%. For the same compound, in assay [1], the “activation of the p53-responsive element as % of the value obtained with the positive control (p53 wt)” value is reported as 23% and the “activation … (luciferase activity)” value is reported as “nineteen-fold”.
